Reference: US20090017042A1, “PROCESS FOR THE DETERMINATION OF THE PRIMARY STRUCTURE OF THE MESSENGER RNA CODING FOR THE HUMAN RECOMBINANT ENDOOLIGOPEPTIDASE A (HEOPA) [AF217798]” (priority 2002, published 2009)
Values joined by “and” are separate entries in the source; they are usually repeats but may differ in a detail not shown here. Equal entries are not always repeated.

Key:
[1] = biological target: T1, rEOPA (recombinant endooligopeptidase A) (Homo sapiens, UniProt Q9GZM8); conditions: state of the art; cited from earlier work
T1 construct: poly-histidine tag or anchor protein (e.g. GST) (N, cleaved yes); made in house; host or cells: Escherichia coli (DH5alpha, BL21(DE3) or similar), vector e.g. pProEx-HTc
T1 sequence (Q9GZM8 1-345): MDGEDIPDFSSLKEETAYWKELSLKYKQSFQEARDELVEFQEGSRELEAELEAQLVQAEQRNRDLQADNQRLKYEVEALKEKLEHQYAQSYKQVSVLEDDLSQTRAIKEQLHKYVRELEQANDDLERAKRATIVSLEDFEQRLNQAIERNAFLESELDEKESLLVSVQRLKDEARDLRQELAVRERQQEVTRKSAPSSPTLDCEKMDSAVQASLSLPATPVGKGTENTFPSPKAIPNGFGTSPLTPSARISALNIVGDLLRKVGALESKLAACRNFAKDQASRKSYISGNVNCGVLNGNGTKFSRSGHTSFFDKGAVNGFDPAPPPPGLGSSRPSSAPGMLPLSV

neurolysin (NL) = neurolysin (NL) (Homo sapiens, UniProt Q9BYT8); test: Inhibition of neurolysin; assay type: biochemical
[2] = biological target: T1, rEOPA (recombinant endooligopeptidase A); test: Inhibition of the catalytic activity of recombinant EOPA (kinetic assay, quenched fluorescence peptide substrate or HPLC); assay type: biochemical; conditions: for Ki: rEOPA
Text: Polyclonal antibodies were generated in rats, mice and rabbits, using the purified natural EOPA or the active recombinant EOPA, expressed in bacteria, specifically in Escherichia coli, for the immunization. Male Balb-C mice, 7 to 8 weeks old, and weighing between 18 and 22 g were immunized with purified natural human EOPA, or catalytically active recombinant enzyme. For each of the four immunizations, 2.mμ.g of the purified protein or 3.mμ.g of the recombinant protein, absorbed on aluminum hydroxide [Al(OH)3] were injected intradermically, in weekly intervals. Blood samples were collected one week after the last immunization, and the serum was stored at −20° C. The antiserum titer was evaluated by ELISA, using the appropriate antigen. The anti-catalytic activity of the obtained antiserum was evaluated by HPLC or fluorimetrically, using the quenched fluorescent peptides substrates. Before use, the antiserum was pre-heated at 55° C., for 5 minutes, in order to eliminate any contaminating peptidase activity. […] Using this antibody, it was possible to discriminate the activity of the EOPA from functionally similar, but not homologous enzymes, such as the TOP and the NL, which are also present in animal tissues and cells lineages.
Kinetic assays using natural peptide substrates like bradykinin, neurotensin and opioid peptides, composed by 9 to 13 amino acid residues, were essential for the discovery and characterization of the EOPA in our laboratory (see the summary of this literature in Camargo et al., 1994). Since 1990, we have developed peptide substrates derived from natural substrates with quenched fluorescence, standardizing the characterization of this enzyme, simplifying and reducing the costs, and making the characterization of the kinetic properties of the EOPA more reliable (Juliano et al., 1990). The peptide substrates with quenched fluorescence (qf) used have the radical Abz (ortho-aminobenzoic acid) at the amino terminus of the peptide, and the EDDnp [N-(2,4-dinitrophenyl)ethylenediamine] at the carboxyl terminus of the peptide. […]

[3] = test system: neuronal precursor cells from embryonic stem cells (USP-1 lineage); test: Treatment of neuronal precursor cells differentiated from embryonic stem cells with EOPA inhibitor; assay type: cell-based; conditions: neuronal precursor cells treated with the inhibitor
Procedure: The undifferentiated embryonic stem cells (USP-1 lineage) were cultured in medium containing: DMEM, supplemented with 15% of bovine fetal serum, […] of penicillin/streptomycin and 2 mM of L-glutamine, 1% of non-essential amino acids, 10^−4 M of monothioglicerol, and LIF (Leukemia Inhibitory Factor), in a final concentration of 1,000 units/ml. All the undifferentiated stem cells culture was maintained over a primary culture of previously irradiated murine fibroblasts (Neo Mef2). The differentiation was done after the formation of the embryoid bodies, where 750 cells were maintained in 20 μl of the culture medium drops over a Petri dish, during four days at 37° C., under 5% carbonic gas (during this period the cells form the cellular aggregates known as embryoid bodies). […] After completing the differentiation of the stem cells, the differentiated cells were counted and photographed using a confocal microscopy. A population of cells differentiated into neurons was obtained following the protocol described above, and the influence of the inhibition of the EOPA catalytic activity during the differentiation and maturation process of these neurons was analyzed after the treatment of these cells with the inhibitor JA2.

[4] = biological target: thimet oligopeptidase (TOP) (Homo sapiens, UniProt P52888); conditions: cited from earlier work
Chain of thimet oligopeptidase (TOP) (P52888 whole entry, species assumed): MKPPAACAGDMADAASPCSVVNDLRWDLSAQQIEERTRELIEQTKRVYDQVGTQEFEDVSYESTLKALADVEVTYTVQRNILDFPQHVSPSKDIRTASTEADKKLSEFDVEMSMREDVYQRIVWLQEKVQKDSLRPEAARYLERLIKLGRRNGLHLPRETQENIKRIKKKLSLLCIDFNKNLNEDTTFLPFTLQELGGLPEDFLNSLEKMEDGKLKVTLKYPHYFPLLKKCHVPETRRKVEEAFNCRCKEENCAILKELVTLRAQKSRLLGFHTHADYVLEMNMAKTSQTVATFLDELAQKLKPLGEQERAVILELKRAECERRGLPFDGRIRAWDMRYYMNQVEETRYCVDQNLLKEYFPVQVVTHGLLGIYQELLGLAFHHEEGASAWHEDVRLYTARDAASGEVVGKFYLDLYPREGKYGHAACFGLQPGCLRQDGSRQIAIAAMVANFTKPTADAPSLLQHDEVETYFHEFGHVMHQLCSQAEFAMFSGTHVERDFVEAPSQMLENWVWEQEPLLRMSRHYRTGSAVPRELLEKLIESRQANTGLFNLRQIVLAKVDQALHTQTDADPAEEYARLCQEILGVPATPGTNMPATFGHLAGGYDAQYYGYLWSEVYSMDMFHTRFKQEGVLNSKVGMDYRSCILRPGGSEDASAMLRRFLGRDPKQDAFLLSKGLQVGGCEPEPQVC

Chain of neurolysin (NL) (Q9BYT8 38-704): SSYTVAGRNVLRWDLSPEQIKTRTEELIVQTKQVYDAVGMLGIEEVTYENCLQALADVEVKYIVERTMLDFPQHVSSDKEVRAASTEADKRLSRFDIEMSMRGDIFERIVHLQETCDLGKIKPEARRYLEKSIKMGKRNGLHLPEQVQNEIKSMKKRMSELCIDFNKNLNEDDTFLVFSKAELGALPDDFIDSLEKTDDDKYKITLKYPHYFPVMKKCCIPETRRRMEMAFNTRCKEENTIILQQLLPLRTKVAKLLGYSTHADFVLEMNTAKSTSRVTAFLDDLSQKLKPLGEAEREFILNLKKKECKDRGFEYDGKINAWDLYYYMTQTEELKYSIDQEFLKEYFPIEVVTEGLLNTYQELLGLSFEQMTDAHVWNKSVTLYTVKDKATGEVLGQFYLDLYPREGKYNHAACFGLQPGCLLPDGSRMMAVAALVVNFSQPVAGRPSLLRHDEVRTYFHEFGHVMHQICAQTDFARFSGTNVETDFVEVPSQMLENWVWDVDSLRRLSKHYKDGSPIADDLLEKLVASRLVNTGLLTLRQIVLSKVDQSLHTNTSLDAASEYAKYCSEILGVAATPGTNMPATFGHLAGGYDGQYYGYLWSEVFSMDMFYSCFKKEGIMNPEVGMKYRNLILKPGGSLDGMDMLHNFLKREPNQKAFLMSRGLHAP

Row | Ki [2] | SMILES | effect of thiol agents on EOPA activity (kinetic assays) [1] | also measured
1 |  | O[C@H](CS)[C@H](O)CS (racemic) [dithiothreitol (DTT), dithiothreitol] | activated | 
2 |  | O=C(O)c1cc(SSc2ccc([N+](=O)[O-])c(C(=O)O)c2)ccc1[N+](=O)[O-] [5′-dithio-bis-(2-nitrobenzoic acid)] | inhibited | 
3 | ~17 nM and 17 nM | C[C@H](NC(CCc1ccccc1)C(=O)O)C(=O)NC(C)(C)C(=O)N[C@@H](Cc1ccc(O)cc1)C(=O)Nc1ccc(C(=O)O)cc1 (stereo partly shown) [JA2] |  | Ki (neurolysin (NL)): > 200 nM; differentiation of the cells [3]: abnormal differentiation of the cells; neurites formation [3]: inhibition of the neurites formation; Ki [4]: 23 nM
4 |  | O=C(O)CN(CCN(CC(=O)O)CC(=O)O)CC(=O)O [EDTA] |  | sensitivity of EOPA to metalloprotease-directed agents [2]: insensible
5 | ~17 nM | C[C@H](NC(=O)[C@H](C)NC(CCc1ccccc1)C(=O)O)C(=O)N[C@@H](Cc1ccc(O)cc1)C(=O)Nc1ccc(C(=O)O)cc1 (stereo partly shown) [cFP] |  | 
6 |  | O=C(O)c1cc[c]([Hg][Cl])cc1 [p-chloromercuribenzoate (PCMB), p-chloromercuribenzoate] | inhibited | 
